We go through two compounds from publication PMC10648875 (Antimicrobial Agents and Chemotherapy, 2023).

The test system of assay [1] is Escherichia coli NCTC 13353 (ECM7514), CTX-M-15. As to the kind of experiment: MIC, reference strain. It counts as cell-based. The note with it: for MIC: CTX-M-15, BLI at the fixed concentration in brackets. The method, then: (§1) Other BL/BLI combinations were tested at their recommended BLI concentrations. MIC values for the partner antibiotics and BLIs alone were also determined (Table 2; Table S1). All investigational and marketed BLIs enhanced the potency of antibiotics according to their spectrum of inhibition. MIC values against CLSI-approved QC strains were within acceptable ranges for drugs and combinations tested (Table 3).
(§2) Isolates were tested for antimicrobial susceptibility using the broth microdilution methodology per CLSI M07 (2018) guidelines ([40]). JMI Laboratories produced frozen-form 96-well panels with cation-adjusted Mueller-Hinton broth as the testing medium. Current CLSI quality assurance practices were followed when performing the susceptibility tests. MIC values were validated by concurrently testing the following CLSI-recommended ([27]) QC reference strains: E. coli NCTC 13353 (CTX-M-15), Klebsiella pneumoniae ATCC BAA-2814 (KPC-3), Klebsiella pneumoniae ATCC BAA-1705 (KPC-2), and K. pneumoniae ATCC 700603 (SHV-18). The inoculum density during susceptibility testing was monitored by bacterial colony counts. Where applicable, QC ranges for tested reference strains were those approved or published by the CLSI ([27]). Meropenem was purchased from Carbosynth; ceftolozane was synthesized at Acme Bioscience, Palo Alto, CA, USA; all other antibiotics were from Sigma Aldrich. Xeruborbactam was synthesized at Qpex Biopharma, San Diego, CA, USA. Avibactam was purchased from eNovation, Chemicals LLC, Bridgewater, NJ, USA. Vaborbactam was synthesized at The Medicines Company, San Diego, CA. Relebactam, taniborbactam, and relebactam were synthesized at Acme Bioscience.

Assay [2] relates to P. aeruginosa BAA-3197 (PA5257), KPC-2. As to the kind of experiment: MIC, reference strain. It counts as cell-based. The note with it: for MIC: KPC-2, BLI at the fixed concentration in brackets.
Assay [3] has as its system K. pneumoniae ATCC BAA-2814 (KP1074), KPC-3. Description: MIC, reference strain. The note with it: for MIC: KPC-3, BLI at the fixed concentration in brackets. The class given is cell-based. The method, then:
as §1
as §2, with “([27]).” for “([27]). Meropenem was purchased from Carbosynth; ceftolozane was synthesized at Acme Bioscience, Palo Alto, CA, USA; all other antibiotics were from Sigma Aldrich. Xeruborbactam was synthesized at Qpex Biopharma, San Diego, CA, USA. Avibactam was purchased from eNovation, Chemicals LLC, Bridgewater, NJ, USA. Vaborbactam was synthesized at The Medicines Company, San Diego, CA. Relebactam, taniborbactam, and relebactam were synthesized at Acme Bioscience.”

Assay [4] deals with Klebsiella pneumoniae ATCC 700603 (KPM2881), SHV-18. As to the kind of experiment: MIC, reference strain. It counts as cell-based. As to conditions: for MIC: SHV-18, BLI at the fixed concentration in brackets. How it is done: as §1
as §2, with “([27]).” for “([27]). Meropenem was purchased from Carbosynth; ceftolozane was synthesized at Acme Bioscience, Palo Alto, CA, USA; all other antibiotics were from Sigma Aldrich. Xeruborbactam was synthesized at Qpex Biopharma, San Diego, CA, USA. Avibactam was purchased from eNovation, Chemicals LLC, Bridgewater, NJ, USA. Vaborbactam was synthesized at The Medicines Company, San Diego, CA. Relebactam, taniborbactam, and relebactam were synthesized at Acme Bioscience.”

In assay [5] the test system is E. coli CDC 0069 (EC1106), NDM-1. Description: MIC, reference strain. As to conditions: BLI at the fixed concentration in brackets. The class given is cell-based. The method, then:
as §1
as §2, with “([27]).” for “([27]). Meropenem was purchased from Carbosynth; ceftolozane was synthesized at Acme Bioscience, Palo Alto, CA, USA; all other antibiotics were from Sigma Aldrich. Xeruborbactam was synthesized at Qpex Biopharma, San Diego, CA, USA. Avibactam was purchased from eNovation, Chemicals LLC, Bridgewater, NJ, USA. Vaborbactam was synthesized at The Medicines Company, San Diego, CA. Relebactam, taniborbactam, and relebactam were synthesized at Acme Bioscience.”

For assay [6], the system named is K. pneumoniae CDC 0135 (KP1291), VIM-1. Description: MIC, reference strain. The class given is cell-based. As to conditions: BLI at the fixed concentration in brackets. How it is done:
as §1
as §2, with “([27]).” for “([27]). Meropenem was purchased from Carbosynth; ceftolozane was synthesized at Acme Bioscience, Palo Alto, CA, USA; all other antibiotics were from Sigma Aldrich. Xeruborbactam was synthesized at Qpex Biopharma, San Diego, CA, USA. Avibactam was purchased from eNovation, Chemicals LLC, Bridgewater, NJ, USA. Vaborbactam was synthesized at The Medicines Company, San Diego, CA. Relebactam, taniborbactam, and relebactam were synthesized at Acme Bioscience.”

Assay [7] concerns K. pneumoniae ATCC BAA-1705 (KPM1123), KPC-2. Description: MIC, reference strain. The note with it: for MIC: KPC-2, BLI at the fixed concentration in brackets. It counts as cell-based. The method, then: as §1
as §2, with “([27]).” for “([27]). Meropenem was purchased from Carbosynth; ceftolozane was synthesized at Acme Bioscience, Palo Alto, CA, USA; all other antibiotics were from Sigma Aldrich. Xeruborbactam was synthesized at Qpex Biopharma, San Diego, CA, USA. Avibactam was purchased from eNovation, Chemicals LLC, Bridgewater, NJ, USA. Vaborbactam was synthesized at The Medicines Company, San Diego, CA. Relebactam, taniborbactam, and relebactam were synthesized at Acme Bioscience.”

For assay [8], the target named is T1, VIM-1 in whole cells of KP1015 (OmpK36 GD repeat) (Pseudomonas aeruginosa, UniProt A0A0F7KYQ8).
T1 construct: endogenous in cells; host or cells: K. pneumoniae KP1015
As to the kind of experiment: cell-based. Also on record: species or system K. pneumoniae.

For assay [9], the system named is surveillance isolates of carbapenem-resistant strains of Enterobacterales. As to the kind of experiment: MIC testing of SENTRY surveillance CRE isolates (Table 4, Table S4). It counts as cell-based.

Read-outs that look alike come from different tables or passages of the source.

Consider `NCCN[C@H]1CC[C@H](CC(=O)N[C@H]2Cc3cccc(C(=O)O)c3OB2O)CC1` [Taniborbactam, taniborbactam], for which the MIC in assay [1], in assay [2], in assay [3], in assay [4], in assay [5] and in assay [6] was above 64 µg/mL throughout. The minimal inhibitory concentration (MIC) in assay [7] was above 64 µg/mL. Also, the IC50 in assay [8] (read-out: IC50 of β-lactamase inhibition in whole cells) amounted to 39.1 ± 8.2 µM.
As for `O=C(O)c1c(F)ccc2c1OB(O)[C@@H]1C[C@H]21` [Xeruborbactam, xeruborbactam], the “% of isolates with xeruborbactam MIC of ≤8 µg/mL” value in assay [9] worked out at 13.3%. In assay [9] (read-out: MIC50 for xeruborbactam alone, range over all the subsets of isolates), the MIC50 was 16 to 32 µg/mL. For the same compound, the “% of isolates without significant growth inhibition at 4 µg/mL” value in assay [9] (xeruborbactam alone at 4 µg/mL) is above 99%. Besides, the MIC in assay [1] (Escherichia coli, NCTC13353, read-out: MIC) is 8 µg/mL; in assay [2] (Pseudomonas aeruginosa, BAA3197, read-out: MIC) it was above 64 µg/mL; in assay [3] (Klebsiella pneumoniae, ATCCBAA2814, read-out: MIC), 32 µg/mL; in assay [4] (Klebsiella pneumoniae, ATCC700603, read-out: MIC) it was 16 µg/mL; in [5] (Escherichia coli, read-out: MIC), 16 µg/mL; in assay [6] (Klebsiella pneumoniae, read-out: MIC), 16 µg/mL. Besides, the minimal inhibitory concentration (MIC) in assay [7] (Klebsiella pneumoniae, ATCCBAA1705, read-out: MIC) is 16 µg/mL. Also, the “MIC (number of observations)” value in assay [1] (Table S1, repeated QC testing) was 4 (1) - 8 (8) - 16 (2) µg/ml; in assay [2] (Table S1, repeated QC testing), 64 (1)- >128 (13) µg/ml; in assay [3] (Table S1, repeated QC testing), 16 (20)-32 (28) µg/ml; in [4] (Table S1, repeated QC testing) it was 8 (7)-16 (4) µg/ml; in assay [7] (Table S1, repeated QC testing) it was 8 (2)-16 (44)-32 (2) µg/ml. In assay [8], the IC50 is 70 ± 13.4 µM.
